The supplement of paper PMC10307832

How the values were obtained:
Test in all cases: relative viability (nuclei count vs DMSO), 5 days (fraction); higher = more cells survive
[1] = compound: O=C(NCCCNc1nc(Nc2cccc(NC(=O)N3CCCC3)c2)ncc1I)c1cccs1 [BX 795]
How it was run: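 In 1536-well plates, lung cancer cell lines rested overnight at 37 °C before five library-drug doses (not always all listed), √10 apart, were pinned onto vehicle-anchored plates. Nuclei were counted with MetaXpress from 4× Hoechst images taken after 5 days without medium change. Viability compares treated-well with vehicle-well nuclei as a median over plates, and plates needed control CV below 25% plus at least one doubling to pass.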

[2] = compound: O=C(NCCCNc1nc(Nc2cccc(NC(=O)N3CCCC3)c2)ncc1I)c1cccs1 [BX 795] + CC(=O)c1c(C)c2cnc(Nc3ccc(N4CCNCC4)cn3)nc2n(C2CCCC2)c1=O [Palbociclib] (partner 0.5 µM)
How it was run: (§1)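 Values are medians from duplicate plates. Each reflects relative viability, defined as the nuclei count of treated wells over that of vehicle wells. Lung cancer cell lines in 1536-well plates were pin-tool dosed one day after seeding with one drug alone or with a fixed anchor-drug dose plus five library-drug doses (not always all listed) in √10 steps, then fixed, stained and imaged at 4× after 5 days.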

[3] = compound: O=C(NCCCNc1nc(Nc2cccc(NC(=O)N3CCCC3)c2)ncc1I)c1cccs1 [BX 795] + COc1cc2c(Oc3ccc(NC(=O)C4(C(=O)Nc5ccc(F)cc5)CC4)cc3F)ccnc2cc1OCCCN1CCOCC1 [Foretinib] (partner 0.25 µM)
How it was run: as §1

[4] = compound: O=C(NCCCNc1nc(Nc2cccc(NC(=O)N3CCCC3)c2)ncc1I)c1cccs1 [BX 795] + CS(=O)(=O)CCNCc1ccc(-c2ccc3ncnc(Nc4ccc(OCc5cccc(F)c5)c(Cl)c4)c3c2)o1 [Lapatinib] (partner 2 µM)
How it was run: as §1

[5] = compound: O=C(NCCCNc1nc(Nc2cccc(NC(=O)N3CCCC3)c2)ncc1I)c1cccs1 [BX 795] + O=C(c1cc(Cc2n[nH]c(=O)c3ccccc23)ccc1F)N1CCN(C(=O)C2CC2)CC1 [Olaparib] (partner 8 µM)
How it was run: as §1

Cell Line	relative viability ([1]; 0.04 µM)	relative viability ([1]; 0.1265 µM)	relative viability ([1]; 0.4 µM)	relative viability ([1]; 1.265 µM)	relative viability ([2]; first compound 0.04 µM)	relative viability ([2]; first compound 0.1265 µM)	relative viability ([2]; first compound 0.4 µM)	relative viability ([2]; first compound 1.265 µM)	relative viability ([3]; first compound 0.04 µM)	relative viability ([3]; first compound 0.1265 µM)	relative viability ([3]; first compound 0.4 µM)	relative viability ([3]; first compound 1.265 µM)	relative viability ([4]; first compound 0.04 µM)	relative viability ([4]; first compound 0.1265 µM)	relative viability ([4]; first compound 0.4 µM)	relative viability ([4]; first compound 1.265 µM)	relative viability ([5]; first compound 0.04 µM)	relative viability ([5]; first compound 0.1265 µM)	relative viability ([5]; first compound 0.4 µM)	relative viability ([5]; first compound 1.265 µM)
NCI-H2087	1.07	1.14	1.15	0.941	0.219	0.248	0.322	0.209	1.06	1.13	1.24	0.623	1.24	1.05	1.08	0.975	0.833	0.761	0.781	0.448
NCI-H358	0.955	0.905	0.76	0.513	0.132	0.134	0.131	0.107	0.656	0.837	0.532	0.393	0.455	0.376	0.429	0.296	0.724	0.709	0.486	0.368
RERF-LC-KJ	1.06	0.949	1.02	0.908	–	1.08	1.1	0.895	0.907	0.851	0.889	0.888	0.865	0.764	0.886	0.792	0.919	0.963	0.945	0.409
IA-LM	1.02	1.03	1.12	0.86	–	–	–	–	1.15	1.19	1.28	0.628	0.94	0.994	1.5	0.544	0.783	0.797	0.768	0.757
LOU-NH91	1.01	0.967	0.982	0.961	0.5	0.478	0.558	0.5	0.936	0.922	0.934	0.979	0.698	0.744	0.708	0.715	0.9	0.918	0.754	0.902
NCI-H1975	0.977	1.07	0.858	0.806	0.758	0.712	0.509	0.526	0.833	1.11	0.972	0.898	0.903	0.982	0.727	0.512	0.811	0.961	0.632	0.586
NCI-H2342	1.03	0.939	0.924	0.978	0.599	0.518	0.47	0.498	1.17	0.896	1.07	0.914	–	–	–	–	0.497	0.448	0.479	0.357
NCI-H1793	1.09	0.917	1.05	0.808	0.386	0.246	0.384	0.296	0.887	0.663	0.834	0.266	0.534	0.682	0.875	0.785	0.972	0.856	0.928	0.804
NCI-H1563	1.08	0.942	1.03	0.814	–	–	–	–	0.914	1.04	0.925	0.848	1.01	1.01	1.05	0.785	–	–	–	–
PC-14	0.948	0.997	0.944	0.719	0.516	0.498	0.485	0.318	0.861	1.01	0.992	0.704	0.284	0.35	0.271	0.203	0.241	0.298	0.139	0.236
CAL-12T	0.949	0.992	0.882	0.623	0.473	0.55	0.298	0.218	1.16	1.13	0.873	1.07	0.738	0.624	0.608	0.29	0.877	0.769	0.725	0.41
HCC-44	0.908	0.967	1.07	1.06	0.997	0.968	1.05	1.07	–	–	–	–	0.934	1.01	0.981	1.04	0.995	1.01	1.06	1
NCI-H522	0.92	0.877	0.921	1.01	0.958	0.969	0.943	0.982	–	–	–	–	–	–	–	–	0.616	0.586	0.692	0.658
NCI-H441	1.39	1.24	1.48	0.802	0.22	0.204	0.243	0.184	1.28	0.908	1.18	0.796	–	–	–	–	0.665	0.623	0.497	0.413
SW 900	0.856	0.759	1.04	0.813	0.512	–	0.67	0.593	0.938	1.04	0.968	0.569	–	–	–	–	0.755	–	1.25	0.775
NCI-H596	1.05	1.04	1	0.933	–	–	–	–	0.873	0.745	1.07	0.787	1.01	1.11	1.11	1.15	0.729	0.673	0.632	0.766
NCI-H1792	0.93	0.818	1.12	0.867	0.724	0.633	0.643	0.613	–	–	–	–	0.872	0.903	0.981	0.842	0.401	–	0.302	0.422
